According to US20150238460A1, “Methods and Compositions For Treating Hepatocellular Carcinoma” (priority 2012, published 2015):
Read-outs that look alike come from different tables or passages of the source.

Experiments:
[1] = test system: advanced, unresectable HCC (various cancers in whole group); test: Phase I trial G-202-001, expansion group with modified dosing regimen; assay type: in vivo, human; conditions: fifth HCC patient
From the text: Virtually all anti-cancer agents have the potential to cause infusion reactions, which are reactions that may be allergic or non-allergic in nature and not related to the known toxicity profile of the agent. Infusion reactions are usually thought of as hypersensitivity reactions, despite the absence of an allergic component in many cases.
Endpoints evaluated in the expansion group included safety, tumor response rate, progression-free survival, and overall survival. Additional secondary endpoints included exploration of pharmacodynamic markers associated with various cancers. Assessments were routinely performed during therapy and following therapy if toxicity was the reason therapy was discontinued.
The only FDA-approved therapy for patients with unresectable HCC is sorafenib tosylate, otherwise known as Nexavar® and/or by the chemical name: 4-(4-{3-[4-Chloro-3-(trifluoromethyl)phenyl]ureido}phenoxy)N2methylpyridine-2-carboxamide 4-methylbenzenesulfonate.

[2] = test system: progressive advanced hepatocellular carcinoma (HCC); conditions: two of four patients, no improvement on therapy
[3] = test system: advanced hepatocellular carcinoma; conditions: cited from earlier work
[4] = test system: advanced hepatocellular carcinoma; conditions: Asian-Pacific trial, advanced HCC; cited from earlier work
[5] = test system: Sarcoplasmic/Endoplasmic Reticulum Calcium ATPase (SERCA) pump; conditions: cited from earlier work

8-O-(12-aminododecanoyl)-debutanoyl-thapsigargin aspartate-glutamate-γ-glutamate-γ-glutamate-γ-glutamate OH [G-202]
time without disease progression after ceasing treatment [1]: more than four
disease progression reached after number of cycles [2]: no more than two

CNC(=O)c1cc(Oc2ccc(NC(=O)Nc3ccc(Cl)c(C(F)(F)F)c3)cc2)ccn1.Cc1ccc(S(=O)(=O)O)cc1 [sorafenib, 4-(4-{3-[4-Chloro-3-(trifluoromethyl)phenyl]ureido}phenoxy)N2methylpyridine-2-carboxamide 4-methylbenzenesulfonate]
disease progression on prior sorafenib treatment after ([1]; before G-202): 3 months
time to radiologic progression ([3]; SHARP Trial, patients with advanced HCC, no prior systemic treatment): 5.5 months
overall survival ([3]; SHARP Trial, patients with advanced HCC): 10.7 months
average time to disease progression after beginning sorafenib treatment ([3]; clinical trial of 602 patients with HCC (Llovet 2008)): approximately six
median overall survival [4]: 6.5 months
time to radiologic progression [4]: 2.8 months

C/C=C(/C)C(=O)O[C@H]1C(C)=C2[C@H]([C@@H]1OC(=O)CCCCCCC)[C@@](C)(OC(C)=O)C[C@H](OC(=O)CCC)[C@@]1(O)[C@H]2OC(=O)[C@@]1(C)O [Thapsigargin]
affinity of binding to SERCA pump [5]: high affinity
